Test results reported in patent publication US9409905B2, “Antibacterial compounds and methods for use” (PTC THERAPEUTICS, INC., priority 2011, dated 2016).
Converted amounts (≈) assume the structure as drawn.

Columns and labels:
[1] = test system: Escherichia coli (E. coli) BAS849; assay: Antibacterial activity, microbroth dilution MIC (Table 1); format: cell-based; settings: microbroth dilution, super sensitive Gram-negative E. coli BAS849, read-out: MIC, BAS849
In short: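 In a microbroth dilution test, the minimum inhibitory concentration was defined as the lowest compound level preventing growth seen by eye, and was given in μg/mL.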

[2] = test system: Staphylococcus aureus (S. aureus) 29213; assay: as above; format: cell-based; settings: microbroth dilution, Gram-positive S. aureus 29213, read-out: MIC, 29213
In short: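 Broth microdilution against S. aureus 29213, E. coli 25922 and hypersensitive E. coli BAS849. MIC in μg/mL is the lowest drug concentration preventing macroscopically visible growth under test conditions.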

[3] = test system: E. coli 25922; assay: as above; format: cell-based, Escherichia coli; settings: Escherichia coli; microbroth dilution; control Gram-negative E. coli 25922 strain; read-out: MIC, 25922
In short: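 Each strain is exposed to test compound in a microbroth dilution series; visible growth is scored macroscopically, and the lowest growth-free concentration is recorded as MIC in μg/mL.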

[4] = test system: E. coli LZ3111; assay: Antibacterial activity, MIC, quinolone resistant strain (Table 2); format: cell-based; settings: Escherichia coli, LZ3111, read-out: MIC LZ3111
In short: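 Strain carries mutations conferring high-level quinolone resistance; tested by microbroth dilution, MIC recorded in μg/mL as lowest concentration preventing visible growth.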

[5] = test system: Acinetobacter baumannii (A. baumannii) BAA747; assay: Antibacterial activity, MIC (Table 4); format: cell-based; settings: A. baumannii BAA747, read-out: MIC, BAA747
Source text: (§1) The antibacterial activity from a microbroth dilution method may be presented as the minimum inhibitory concentration (MIC in μg/mL). The MIC value is the lowest concentration of drug which prevents macroscopically visible growth under test conditions.
(§2) Antibacterial activity of test compounds against the Gram-negative Acinetobacter baumannii (A. baumannii) BAA747 and Klebsiella pneumoniae (K. pneumoniae) 35657 bacterium and the resistant A. baumannii MXX2240 and K. pneumoniae MXX1232 strains are shown in Table 4. The MMX strains are multi-drug resistant clinical isolates.

[6] = test system: Klebsiella pneumoniae (K. pneumoniae) 35657; assay: Antibacterial activity, MIC (Table 4); format: cell-based; settings: K. pneumoniae 35657, read-out: MIC, 35657
Source text: as §1, §2

[7] = test system: A. baumannii MXX2240; assay: Antibacterial activity, MIC, resistant strain (Table 4); format: cell-based; settings: Acinetobacter baumannii, MXX2240; resistant A. baumannii MMX2240, multi-drug resistant clinical isolate; read-out: MIC, MMX2240
Source text: as §1, §2

[8] = test system: K. pneumoniae MXX1232; assay: as above; format: cell-based; settings: Klebsiella pneumoniae, MXX1232; resistant K. pneumoniae MMX1232, multi-drug resistant clinical isolate; read-out: MIC, MMX1232
Source text: as §1, §2

[9] = test system: Pseudomonas aeruginosa (P. aeruginosa) 27853; assay: Antibacterial activity, MIC (Table 5); format: cell-based; settings: P. aeruginosa 27853, read-out: MIC, 27853
Source text: as §1
Antibacterial activity of test compounds against the Gram-negative bacterium Pseudomonas aeruginosa (P. aeruginosa) 27853 is shown in Table 5.

| Structure (SMILES) | MIC [1] [µg/mL] | MIC [2] [µg/mL] | MIC [3] [µg/mL] | MIC [4] [µg/mL] | MIC [5] [µg/mL] | MIC [6] [µg/mL] | MIC [7] [µg/mL] | MIC [8] [µg/mL] | MIC [9] [µg/mL] |
| --- | --- | --- | --- | --- | --- | --- | --- | --- | --- |
| CCc1c(-c2ccc3c(c2)cc2n3C[C@H](N)C[C@H]2NC)[nH]c(=O)c(C(=O)O)c1O.Cl.Cl (relative stereo) [Cpd 422, 6-(trans-7-amino-9-(methylamino)-6,7,8,9-tetrahydropyrido[1,2-a]indol-2-yl)-5-ethyl-4-hydroxy-2-oxo-1,2-dihydropyridine-3-carboxylic acid bis-hydrochloride] | 1 to 3.5 | 12.5 to 150 | 12.5 to 150 | 12.5 to 150 | 12.5 to 150 | 3.5 to 12.5 | 12.5 to 150 | 12.5 to 150 | 12.5 to 150 |
| CCc1c(-c2cn(C)c3ccccc23)[nH]c(=O)c(C(=O)O)c1O [Cpd 14, 5-ethyl-4-hydroxy-6-(1-methyl-1H-indol-3-yl)-2-oxo-1,2-dihydropyridine-3-carboxylic acid] | 1 to 3.5 (≈ 3.2 to 11.2 µM) | 3.5 to 12.5 (≈ 11.2 to 40 µM) | 12.5 to 150 (≈ 40 to 480 µM) | 12.5 to 150 (≈ 40 to 480 µM) | 12.5 to 150 (≈ 40 to 480 µM) | 12.5 to 150 (≈ 40 to 480 µM) | 12.5 to 150 (≈ 40 to 480 µM) | 12.5 to 150 (≈ 40 to 480 µM) | 12.5 to 150 (≈ 40 to 480 µM) |
| CCc1cc(C(=O)O)c(=O)[nH]c1-c1cnc2c(ccn2C)c1 [Cpd 31, 5-ethyl-6-(1-methyl-1H-pyrrolo[2,3-b]pyridin-5-yl)-2-oxo-1,2-dihydropyridine-3-carboxylic acid] | 1 to 3.5 (≈ 3.36 to 11.8 µM) | 12.5 to 150 (≈ 42 to 505 µM) | 12.5 to 150 (≈ 42 to 505 µM) | 12.5 to 150 (≈ 42 to 505 µM) | 12.5 to 150 (≈ 42 to 505 µM) | 12.5 to 150 (≈ 42 to 505 µM) | 12.5 to 150 (≈ 42 to 505 µM) | 12.5 to 150 (≈ 42 to 505 µM) | 12.5 to 150 (≈ 42 to 505 µM) |
| CCc1cc(C(=O)O)c(=O)[nH]c1-c1ccc2ncnn2c1.Cl [Cpd 49, 6-([1,2,4]triazolo[1,5-a]pyridin-6-yl)-5-ethyl-2-oxo-1,2-dihydropyridine-3-carboxylic acid hydrochloride] | 12.5 to 150 | 12.5 to 150 | 12.5 to 150 | 12.5 to 150 | 12.5 to 150 | 12.5 to 150 | 12.5 to 150 | 12.5 to 150 | 12.5 to 150 |
| CCc1cc(C(=O)O)c(=O)[nH]c1-c1ccc2nncn2c1.Cl [Cpd 50, 6-([1,2,4]triazolo[4,3-a]pyridin-6-yl)-5-ethyl-2-oxo-1,2-dihydropyridine-3-carboxylic acid hydrochloride] | 12.5 to 150 | 12.5 to 150 | 12.5 to 150 | 12.5 to 150 | 12.5 to 150 | 12.5 to 150 | 12.5 to 150 | 12.5 to 150 | 12.5 to 150 |
| CCc1cc(C(=O)O)c(=O)[nH]c1-c1ccc2nccn2c1.Cl [Cpd 51, 5-ethyl-6-(imidazo[1,2-a]pyridin-6-yl)-2-oxo-1,2-dihydropyridine-3-carboxylic acid hydrochloride] | 12.5 to 150 | 12.5 to 150 | 12.5 to 150 | 12.5 to 150 | 12.5 to 150 | 12.5 to 150 | 12.5 to 150 | 12.5 to 150 | 12.5 to 150 |
| CCc1cc(C(=O)O)c(=O)[nH]c1-c1cnc2c(c1)ncn2C [Cpd 52, 5-ethyl-6-(3-methyl-3H-imidazo[4,5-b]pyridin-6-yl)-2-oxo-1,2-dihydropyridine-3-carboxylic acid] | 12.5 to 150 (≈ 41.9 to 503 µM) | 12.5 to 150 (≈ 41.9 to 503 µM) | 12.5 to 150 (≈ 41.9 to 503 µM) | 12.5 to 150 (≈ 41.9 to 503 µM) | 12.5 to 150 (≈ 41.9 to 503 µM) | 12.5 to 150 (≈ 41.9 to 503 µM) | 12.5 to 150 (≈ 41.9 to 503 µM) | 12.5 to 150 (≈ 41.9 to 503 µM) | 12.5 to 150 (≈ 41.9 to 503 µM) |
| CCc1cc(C(=O)O)c(=O)[nH]c1-c1ccc2c(c1)ncn2C [Cpd 53, 5-ethyl-6-(1-methyl-1H-benzo[d]imidazol-5-yl)-2-oxo-1,2-dihydropyridine-3-carboxylic acid] | 3.5 to 12.5 (≈ 11.8 to 42 µM) | 12.5 to 150 (≈ 42 to 505 µM) | 12.5 to 150 (≈ 42 to 505 µM) | 12.5 to 150 (≈ 42 to 505 µM) | 12.5 to 150 (≈ 42 to 505 µM) | 12.5 to 150 (≈ 42 to 505 µM) | 12.5 to 150 (≈ 42 to 505 µM) | 12.5 to 150 (≈ 42 to 505 µM) | 12.5 to 150 (≈ 42 to 505 µM) |
| CCc1cc(C(=O)O)c(=O)[nH]c1-c1ccc2c(c1)cc(CN(C)Cc1ccccc1)n2C [Cpd 121, 6-(2-((benzyl(methyl)amino)methyl)-1-methyl-1H-indol-5-yl)-5-ethyl-2-oxo-1,2-dihydropyridine-3-carboxylic acid] | < 1 | 3.5 to 12.5 (≈ 8.15 to 29.1 µM) | 1 to 3.5 (≈ 2.33 to 8.15 µM) | 12.5 to 150 (≈ 29.1 to 349 µM) | 1 to 3.5 (≈ 2.33 to 8.15 µM) | 3.5 to 12.5 (≈ 8.15 to 29.1 µM) | 12.5 to 150 (≈ 29.1 to 349 µM) | 12.5 to 150 (≈ 29.1 to 349 µM) | 12.5 to 150 (≈ 29.1 to 349 µM) |
| CCc1cc(C(=O)O)c(=O)[nH]c1-c1ccc2c(c1)cc(CN(CC)CC)n2C [Cpd 123, 6-(2-((diethylamino)methyl)-1-methyl-1H-indol-5-yl)-5-ethyl-2-oxo-1,2-dihydropyridine-3-carboxylic acid] | < 1 | 12.5 to 150 (≈ 32.8 to 393 µM) | < 1 | 12.5 to 150 (≈ 32.8 to 393 µM) | 1 to 3.5 (≈ 2.62 to 9.17 µM) | < 1 | 12.5 to 150 (≈ 32.8 to 393 µM) | 12.5 to 150 (≈ 32.8 to 393 µM) | 12.5 to 150 (≈ 32.8 to 393 µM) |
| CCc1cc(C(=O)O)c(=O)[nH]c1-c1ccc2c(c1)cc(CN1CCOCC1)n2C [Cpd 137, 5-ethyl-6-(1-methyl-2-(morpholinomethyl)-1H-indol-5-yl)-2-oxo-1,2-dihydropyridine-3-carboxylic acid] | < 1 | 12.5 to 150 (≈ 31.6 to 379 µM) | 1 to 3.5 (≈ 2.53 to 8.85 µM) | 12.5 to 150 (≈ 31.6 to 379 µM) | 3.5 to 12.5 (≈ 8.85 to 31.6 µM) | 1 to 3.5 (≈ 2.53 to 8.85 µM) | 12.5 to 150 (≈ 31.6 to 379 µM) | 12.5 to 150 (≈ 31.6 to 379 µM) | 12.5 to 150 (≈ 31.6 to 379 µM) |
| CCc1cc(C(=O)O)c(=O)[nH]c1-c1ccc2c(c1)cc(CN1CCN(C)CC1)n2C [Cpd 140, 5-ethyl-6-(1-methyl-2-((4-methylpiperazin-1-yl)methyl)-1H-indol-5-yl)-2-oxo-1,2-dihydropyridine-3-carboxylic acid] | < 1 | 12.5 to 150 (≈ 30.6 to 367 µM) | 1 to 3.5 (≈ 2.45 to 8.57 µM) | 12.5 to 150 (≈ 30.6 to 367 µM) | 3.5 to 12.5 (≈ 8.57 to 30.6 µM) | 1 to 3.5 (≈ 2.45 to 8.57 µM) | 12.5 to 150 (≈ 30.6 to 367 µM) | 12.5 to 150 (≈ 30.6 to 367 µM) | 12.5 to 150 (≈ 30.6 to 367 µM) |
| CCc1cc(C(=O)O)c(=O)[nH]c1-c1ccc2c(c1)cc1n2CCC1N1CCCCC1 (stereo not drawn) [Cpd 154, 5-ethyl-2-oxo-6-(1-(piperidin-1-yl)-2,3-dihydro-1H-pyrrolo[1,2-a]indol-7-yl)-1,2-dihydropyridine-3-carboxylic acid] | < 1 | 12.5 to 150 (≈ 30.8 to 370 µM) | 1 to 3.5 (≈ 2.47 to 8.63 µM) | 12.5 to 150 (≈ 30.8 to 370 µM) | 3.5 to 12.5 (≈ 8.63 to 30.8 µM) | 1 to 3.5 (≈ 2.47 to 8.63 µM) | 12.5 to 150 (≈ 30.8 to 370 µM) | 12.5 to 150 (≈ 30.8 to 370 µM) | 12.5 to 150 (≈ 30.8 to 370 µM) |
| CC(C)c1c(-c2ccc3c(c2)cc(CN(C)C)n3C)[nH]c(=O)c(C(=O)O)c1O [Cpd 318, 6-(2-((dimethylamino)methyl)-1-methyl-1H-indol-5-yl)-4-hydroxy-5-isopropyl-2-oxo-1,2-dihydropyridine-3-carboxylic acid] | < 1 | 12.5 to 150 (≈ 32.6 to 391 µM) | 1 to 3.5 (≈ 2.61 to 9.13 µM) | 12.5 to 150 (≈ 32.6 to 391 µM) | 12.5 to 150 (≈ 32.6 to 391 µM) | 3.5 to 12.5 (≈ 9.13 to 32.6 µM) | 12.5 to 150 (≈ 32.6 to 391 µM) | 12.5 to 150 (≈ 32.6 to 391 µM) | 12.5 to 150 (≈ 32.6 to 391 µM) |
| CN(C)Cc1cc2cc(-c3[nH]c(=O)c(C(=O)O)c(O)c3C3CC3)ccc2n1C [Cpd 322, 5-cyclopropyl-6-(2-((dimethylamino)methyl)-1-methyl-1H-indol-5-yl)-4-hydroxy-2-oxo-1,2-dihydropyridine-3-carboxylic acid] | 1 to 3.5 (≈ 2.62 to 9.18 µM) | 12.5 to 150 (≈ 32.8 to 393 µM) | 12.5 to 150 (≈ 32.8 to 393 µM) | 12.5 to 150 (≈ 32.8 to 393 µM) | 12.5 to 150 (≈ 32.8 to 393 µM) | 12.5 to 150 (≈ 32.8 to 393 µM) | 12.5 to 150 (≈ 32.8 to 393 µM) | 12.5 to 150 (≈ 32.8 to 393 µM) | 12.5 to 150 (≈ 32.8 to 393 µM) |
